The nature of test [1]: Free radical scavenging with DPPH. Conditions: for EC50: DPPH, read-out: Free radical scavenging ability EC50. The protocol: The antioxidant (free radical trapping) activity of test compounds was assessed using the stable free radical compound 2,2-diphenyl-1-picrylhydrazyl (DPPH). A stock solution of DPPH was prepared at a concentration of […] in ethanol and mixed for 10 minutes prior to use. Test compounds at a concentration of 100 μM were reacted with DPPH for, 20 minutes, alter which time the absorbance at 517 nm was determined. Initial screening of was done at 100 μM. The change in absorbance at 517 nm was compared to a reagent blank (DPPH with ethanol alone). […] The IC50 values were estimated as the concentration of test compound that caused a 0.6 change in absorbance (with 1.2 absorbance units representing total scavenging of the DPPH radical).
The antioxidant (free radical trapping) activity of test compounds was assessed using the stable free radical compound 2,2-diphenyl-1-picrylhydrazyl (DPPH). A stock solution of DPPH was prepared […] in ethanol and mixed for 10 minutes prior to use. Initial screening of test compound at a concentration of 100 μM was reacted with DPPH for 20 minutes, after which time the absorbance at 517 nm was determined. The change in absorbance was compared to a reagent blank (DPPH with ethanol alone). […] The IC50 value was estimated as the concentration of test compound that causes a 0.6 change in absorbance (with 1.2 absorbance units representing total scavenging of the DPPH radical).
In general terms: Loss of DPPH colour is used to gauge radical scavenging.

Test [2] deals with TNFα synthesis in RAW 264.7 murine macrophages. Description: LPS-induced TNFα synthesis in RAW 264.7 murine macrophages. Format: cell-based, mouse. Conditions: 10 μM; relative to vehicle alone; FIG. 5. How it is done: (§1) The mouse macrophage cell line RAW 264.7 was cultured in DMEM supplemented with foetal calf serum (FCS), […] glutamine and 50 U/ml penicillin/streptomycin. Cells were treated with either test compound (in 0.025% DMSO) or vehicle alone, and added one hour before 50 ng/ml LPS. After incubation for 24 h, culture media was collected for PGE2 or TXB2 measurement by ELISA (Cayman Chemical), and TNFα measurement using an ELISA (Becton Dickinson). Test compounds were examined a concentration of 10 μM. […] Consequently, to assess the effect of test compounds on various analytes, cell viability was taken into consideration with the use of the formula: Actual effect of test compound=measured effect−(effect on cell viability×measured effect)

In test [3] the test system is NO synthesis in RAW 264.7 murine macrophages. Description: LPS-induced NO synthesis in RAW 264.7 murine macrophages (Griess). The class given is cell-based, mouse. Conditions: 10 μM; relative to vehicle alone; FIG. 6. How it is done:
as §1, with “Dickinson). Nitrite concentration is a quantitative indicator of NO production and was determined by the Griess Reaction. Briefly, 100 μL of Griess reagent was added to 50 μL of each supernatant in duplicate. The absorbance at 550 nm was measured (Molecular Devices, SpectraMax 250 microplate spectrophotometer, CA, USA), and nitrite concentrations were determined against a standard curve of sodium nitrite. The percentage nitrite inhibition was calculated as: [100−(nitrite concentration of sample/nitrite of vehicle control LPS cells)×100]. Results” for “Dickinson).”
A general note: Nitrite, measured by Griess reagent, commonly stands in for NO production.

Test [4] has as its system CP70. The test is described as follows: Anti-cancer activity, CP70 ovarian cancer cells (MTT). Format: cell-based. Conditions: 120 h, 5 days.
Test [5] has as its system cancer cell lines. Description: Anti-cancer activity, cancer cell lines tested as a group (MTT). Conditions: CP70, HPAC and MM200. Format: cell-based.
For test [6], the system named is MM200. Description: Anti-cancer activity, MM200 melanoma cells (MTT). Format: cell-based. Conditions: 120 h; 5 days, MTT.
Test [7] deals with HPAC. Description: Anti-cancer activity, HPAC pancreatic cancer cells (MTT). Format: cell-based. Conditions: Homo sapiens, 120 h, 5 days.
Test [8] has as its target T1, GAL4-PPARγ fusion protein (Homo sapiens, UniProt P37231).
T1 construct: host or cells: HEK293 (human embryonic kidney), stably transfected
Description: PPARγ activity in transfected HEK293 cells (beta-lactamase reporter). Format: cell-based. Conditions: FIG. 13: 1 μM. The protocol:
Human HEK293 cells, stably transfected with the PPARγ ligand binding domain fused with the DNA binding domain of the GAL4 protein (GAL4-PPARγ fusion protein), produce beta-lactamase when incubated with PPARγ ligands. Transfected human kidney embryonic cells (Invitrogen Inc., Carlsbad, Calif.) were seeded onto matrigel in 96-well plates and allowed to attach overnight. The following day, vehicle alone (DMSO) or test compound at 1, 5 and 10 μM was added at varying concentrations to cells and incubated for 16-18 hours. Cells were then loaded with a FRET-based fluorescent substrate to assess beta-lactamase activity. Cells were protected from light, and incubated at room temperature for 2 h. Plates were read on a fluorescence plate reader with an excitation wavelength of 409 nm and emission wavelengths of 460 nm and 530 nm. Results were expressed as a ratio of these two wavelengths after the background (cell-free control wells) had been subtracted. PPARγ activity was thus determined by measuring beta-lactamase activity as assessed by a fluorescent product to substrate ratio.

Test [9] relates to red blood cells (RBC). The test is described as follows: Peroxyl radical (AAPH)-induced red blood cell lysis. Format: cell-based. How it is done: Freshly collected heparinised venous blood (10 ml, on ice) was aliquotted into 1.8 ml sterile Eppendorf tubes and centrifuged for 10 minutes at 2600 rpm at 4° C. Plasma and buffy coat layers were removed (approximately […]) and packed red blood cells (RBC) were then washed by the addition of […], ice cold PBS. This washing procedure was repeated twice. Packed RBC were resuspended by the addition of 900 ml of ice-cold, sterile PBS (and termed RBC stock). RBC stocks were stored at 4° C. for a maximum of three days. All working suspensions of RBC were prepared fresh daily by diluting […] of RBC stock into 10 ml of ice-cold, sterile PBS and […] added to each well.
Stocks of AAPH were freshly prepared for individual experiments as follows. AAPH (1.22 gm) was dissolved in 7.5 ml of PBS to yield a 4× stock at 600 mM and […] aliquots (final concentration of 150 mM) were then added to each well to initiate the lysis assay. Stock solutions of test compounds (40 mM in 100% DMSO) were diluted in sterile PBS to yield final concentrations of […] per well. Appropriate controls were included in each experiment. All compound dilutions were adjusted to give final DMSO concentrations in each well of 0.25%. Peroxy-induced RBC lysis assays were performed in 96-flat bottom well microtitre plates with a total volume of […] per well. Turbidity of RBC suspensions were monitored using a Tecan microplate reader at 690 nm (37° C.) with gentle vortexing. Assays were performed in quadruplicate and readings were taken every 5 minutes over 5 hours. RBC lysis curves were constructed by plotting absorbance (mean of 4 readings) against time. Time to half-lysis was calculated by taking the highest absorbance reading (no lysis) and the lowest absorbance reading (maximum lysis). The sum of these two readings divided by two gave the absorbance at half-lysis. Simple regression analysis was used to calculate the time at which half-lysis absorbance occurred.
This comparative study was conducted according to the assay method set out in the example at Section 3.3 above.

The subject of test [10] is NFκB-promoter activity in TNFa-stimulated THP-1 monocyte/macrophages. Description: NFκB promoter activity in TNFα-stimulated THP-1 cells (beta-lactamase reporter). Format: cell-based, human. Conditions: 30 μM; FIG. 19. The protocol: The assay utilizes a genetically modified THP-1 cell line and GeneBLAzer® beta-lactamase technology (Invitrogen Corp). The human THP-1 monocyte/macrophages contain a stably-transfected beta-lactamase reporter gene under control of the NFκB response element They respond to stimulation with TNF-a, which leads to activation of the NFκB signaling pathway. Co-incubation of cells with TNF-a and test material allows quantitative determination of the ability of test material to inhibit TNFa-stimulated beta-lactamase production. Inflammatory index is calculated as the ratio of beta-lactamase product to beta-lactamase substrate. In brief, genetically modified THP-1 cells were seeded into wells of a 96-well plate (50×10^3 cells/well) in the presence of RPMI 1640 medium (70 μl). TNFα was added to each well (10 μl) to give a final concentration of 7.5 ng/ml. Dialyzed bovine serum was added (10 μl). Compounds dissolved in DMSO (10 μL) were then added (5 wells for each compound). Each plate contained a no-cell control (4 wells), a no-serum control (4 wells) and two serum controls. Plates were incubated for 5 h at 37° C. to allow for NFκB-stimulated beta-lactamase production. LiveBLAzer™ FRET B/G Substrate (CCF4-AM) substrate was then added to assay. CCF4-AM is a Forster resonance energy transfer (FRET) based substrate for beta-lactamase developed by Invitrogen Corp. Once CCFA-AM enters a cell, it is converted to negatively charged CCF4 by endogenous esterases. Excitation of this substrate at 409 nm leads to efficient FRET between the coumarin and fluorescein moieties, resulting in a green fluorescence detectable at 530 nm. The presence of beta-lactamase leads to cleavage of CCF4 and results in a loss of FRET, resulting in a robust blue fluorescent signal detectable at 460 nm. Thus, activity of beta-lactamase (a marker of NFκB-promoter activity) is measured as a product to substrate ratio (blue/green fluorescence ratio: 460 nm/530 nm). The determination of inflammatory index has a within-plate CV of 2.1% and a between-plate CV of 8.9% This comparative study was conducted according to the assay method set out in the example at Section 2.4 above.

Where [11] appears, read: 20 minutes, absorbance 517 nm, Table 4.

Structures are written as SMILES. Read-outs that look alike come from different tables or passages of the source.

T1 sequence (P37231 238-503 limits assumed): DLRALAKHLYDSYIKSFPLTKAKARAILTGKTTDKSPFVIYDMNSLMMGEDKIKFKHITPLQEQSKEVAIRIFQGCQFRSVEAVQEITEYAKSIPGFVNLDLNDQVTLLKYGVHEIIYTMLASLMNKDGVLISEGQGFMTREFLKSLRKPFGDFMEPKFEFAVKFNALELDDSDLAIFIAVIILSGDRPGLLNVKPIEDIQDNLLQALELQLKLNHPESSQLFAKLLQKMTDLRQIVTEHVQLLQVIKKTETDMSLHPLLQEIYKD
T1 sequence (P04386 1-147 partner limits assumed): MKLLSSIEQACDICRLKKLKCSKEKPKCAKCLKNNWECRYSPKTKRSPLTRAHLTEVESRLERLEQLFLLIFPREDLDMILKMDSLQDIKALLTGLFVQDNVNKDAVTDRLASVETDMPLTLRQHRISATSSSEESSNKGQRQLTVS

As for `CN1COc2cc3c(cc2C1)C=C(c1ccc(O)cc1)CO3` [Compound 4, 4-(3-methyl-2,3,4,8-tetrahydrochromeno[6,7-e][1,3]oxazin-7-yl)phenol], in test [1] (setting [11]), the EC50 is 22.5 µM. The “mean change of LPS-induced TNFα synthesis” value in test [2] was “greatest inhibition”. In addition, in [3], the “mean change of LPS-induced NO synthesis” value is given as “greatest inhibition”.
For the compound `COc1ccc(CN2COc3cc4c(cc3C2)C=C(c2ccc(O)cc2)CO4)cc1` [Compound 6, 4-(3-(4-Methoxybenzyl)-2,3,4,8-tetrahydrochromeno[6,7-e][1,3]oxazin-7-yl)phenol], the half-maximal effective concentration (EC50) in [1] (setting [11]) was determined as 24 µM. For the same compound, the “mean change of LPS-induced TNFα synthesis” value in [2] is reported as “greatest inhibition”. Moreover, the IC50 in test [4] is 5.08 ± 1.5 µM; in test [6], 11.3 ± 0.2 µM; in [7] it was 9.64 ± 3.6 µM. Also, the “activity against CP70, HPAC and MM200 cell lines” value in test [5] is listed as “active”. In test [8], the “PPARγ activation, increase in beta-lactamase activity over media only control” value is “PPARγ agonist activity”.
`Cc1cccc(N2COc3cc4c(cc3C2)C=C(c2ccc(O)cc2)CO4)c1` [Compound 22, 4-(3-m-Tolyl-2,3,4,8-tetrahydrochromeno[6,7-e][1,3]oxazin-7-yl)phenol]: the half-maximal effective concentration (EC50) in test [1] (setting [11]) is 21 µM. In test [2], the “mean change of LPS-induced TNFα synthesis” value was “greatest inhibition”. Moreover, in test [3], the “mean change of LPS-induced NO synthesis” value is “greatest inhibition”. Besides, the “PPARγ activation, increase in beta-lactamase activity over media only control” value in [8] was “PPARγ agonist activity”.
Take `O=c1c(-c2ccc(O)cc2)coc2cc(O)cc(O)c12` [genistein, reference compound]: the “free radical scavenging / antioxidant activity in DPPH screen” value in [1] (100 μM, ΔAbs>0.3 criterion) is reported as “no antioxidant activity”. In addition, the EC50 in [1] (comparative, Table 13) was above 100 µM. In addition, the “antioxidant activity, AAPH-induced time to half-lysis of red blood cells” value in test [9] is given as “delaying the AAPH-induced time to half-lysis”. Also, the “Time taken to reach half-lysis, time” value in test [9] (test compounds at 10 μM, vehicle 40.0, comparative, Table 14) stood at 93.8 min. For the same compound, the “NFκB inhibition” value in test [10] was “inhibited NFκB”.

For orientation: EC50 means the concentration needed to bring the measured effect to its halfway point. A word on the IC50: it is the concentration at which inhibition is half-maximal.
